Test [1] concerns the target Telomerase reverse transcriptase (Homo sapiens, UniProt O14746). Nature of the test: Concentration required to inhibit 50% of telomerase activity.
Test [2] can be described thus: Concentration required to inhibit 50% of human carcinoma CH1 cell lines. It counts as functional, cell-based.
The subject of a further test is SK-OV-3. Nature of the test: Concentration required to inhibit 50% of human carcinoma SKOV3 cell lines. It counts as functional, cell-based.
For another test, the system named is A2780. Nature of the test: Concentration required to inhibit 50% of human carcinoma A2780 cell lines. It counts as functional, cell-based.

Sequence of Telomerase reverse transcriptase (O14746 whole entry): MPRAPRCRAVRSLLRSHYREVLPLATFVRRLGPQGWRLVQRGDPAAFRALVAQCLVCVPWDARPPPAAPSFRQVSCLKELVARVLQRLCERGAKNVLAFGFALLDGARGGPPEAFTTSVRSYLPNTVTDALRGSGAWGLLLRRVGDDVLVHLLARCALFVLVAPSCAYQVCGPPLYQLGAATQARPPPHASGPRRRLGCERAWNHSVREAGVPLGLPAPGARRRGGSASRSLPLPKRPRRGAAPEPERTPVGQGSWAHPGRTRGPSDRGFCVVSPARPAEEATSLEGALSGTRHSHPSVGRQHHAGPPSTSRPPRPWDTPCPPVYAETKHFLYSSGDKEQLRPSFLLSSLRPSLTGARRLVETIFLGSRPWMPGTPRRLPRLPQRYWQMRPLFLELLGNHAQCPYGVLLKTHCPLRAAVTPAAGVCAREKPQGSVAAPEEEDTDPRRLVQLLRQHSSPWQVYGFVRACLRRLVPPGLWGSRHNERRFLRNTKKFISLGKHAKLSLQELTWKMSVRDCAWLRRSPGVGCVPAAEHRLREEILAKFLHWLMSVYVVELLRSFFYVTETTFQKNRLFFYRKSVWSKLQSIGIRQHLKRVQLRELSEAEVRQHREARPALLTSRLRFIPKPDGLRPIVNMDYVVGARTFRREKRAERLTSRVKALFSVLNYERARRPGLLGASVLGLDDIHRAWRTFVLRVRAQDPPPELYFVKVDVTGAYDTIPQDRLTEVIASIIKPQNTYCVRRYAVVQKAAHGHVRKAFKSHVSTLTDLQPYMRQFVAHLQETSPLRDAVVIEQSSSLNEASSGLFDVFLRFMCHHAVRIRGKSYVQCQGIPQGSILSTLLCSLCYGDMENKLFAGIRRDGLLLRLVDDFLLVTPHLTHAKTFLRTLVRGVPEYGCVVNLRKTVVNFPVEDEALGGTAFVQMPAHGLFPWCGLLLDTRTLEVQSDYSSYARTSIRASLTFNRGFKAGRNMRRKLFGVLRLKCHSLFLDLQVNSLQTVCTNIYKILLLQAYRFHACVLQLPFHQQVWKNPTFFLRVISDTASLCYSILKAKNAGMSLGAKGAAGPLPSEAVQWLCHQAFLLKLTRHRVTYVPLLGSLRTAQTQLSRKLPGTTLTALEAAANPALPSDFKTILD

Take `O=C(CCN1CCCCC1)Nc1ccc2c(O)c3cc(NC(=O)CCN4CCCCC4)ccc3nc2c1`: in test [1], a half-maximal response (EC50) required 0.4 µM. The values for the IC50 (in test [2]; with SK-OV-3; in the test on A2780) were 25 µM, 25 µM and 5.6 µM, respectively.

For `O=C(CCN1CCCCC1CO)Nc1ccc2c(O)c3cc(NC(=O)CCN4CCCCC4CO)ccc3nc2c1` (centres undefined), in test [1], the concentration giving a half-maximal response (EC50) (in general, the concentration that produces a half-maximal response) worked out at 0.2 µM. In addition, the IC50 (commonly the concentration needed to halve the response being measured) is 25 µM in test [2], 25 µM in the test on SK-OV-3 and 11.2 µM in the test with A2780.

`c1cc2cc3ccc(N4CCCCC4)cc3nc2cc1N1CCCCC1` gave an EC50 in test [1] of 2.8 µM. Moreover, the IC50 was found to be 2.3 µM in test [2], 0.5 µM with SK-OV-3 and 1.7 µM in the test with A2780.

As to `CN1CCN(CCC(=O)Nc2ccc3nc4ccc(NC(=O)CCN5CCN(C)CC5)cc4c(O)c3c2)CC1`, the EC50 in test [1] stood at 1.9 µM. Besides, the IC50 (in test [2]; in the test with SK-OV-3; with A2780) was above 25 µM in each case.

`CCC1CCCCN1CCC(=O)Nc1ccc2c(O)c3ccc(NC(=O)CCN4CCCCC4CC)cc3nc2c1` (centres undefined) had an EC50 in test [1] of 2.3 µM. For the same compound, the IC50 worked out at 11.8 µM in test [2], 12 µM in the test with SK-OV-3 and 13 µM in the test on A2780.

With `O=C(CCN1CCC(O)CC1)Nc1ccc2c(O)c3cc(NC(=O)CCN4CCC(O)CC4)ccc3nc2c1`, the EC50 in test [1] was 0.2 µM. Also, the IC50 in test [2] came out at 25 µM; with SK-OV-3, 25 µM; with A2780, 3.5 µM.

Compound `CN(C)CCC(=O)Nc1ccc2nc3ccc(NC(=O)CCN(C)C)cc3c(O)c2c1` came in with an EC50 in test [1] of 0.6 µM. Besides, the IC50 (in test [2]; with SK-OV-3; with A2780) was above 25 µM each time.

For `CC[n+]1c(-c2ccccc2)c2cc(N)ccc2c2ccc(N)cc21` [HOMIDIUM BROMIDE], the IC50 in test [2] is 0.4 µM; in the test with SK-OV-3, 4.5 µM; in the test with A2780, 0.1 µM.

Take `CC1CCN(CCC(=O)Nc2ccc3c(O)c4ccc(NC(=O)CCN5CCC(C)CC5)cc4nc3c2)CC1`: in test [1], a half-maximal response (EC50) required 1.7 µM. In addition, the IC50 in test [2] is 3 µM; with SK-OV-3 it was 5.6 µM; in the test on A2780, 3 µM.

`CC1CCCCN1CCC(=O)Nc1ccc2nc3ccc(NC(=O)CCN4CCCCC4C)cc3c(O)c2c1` (centres undefined): in test [1], the EC50 came to 2.3 µM. For the same compound, the IC50 (in test [2]; in the test on SK-OV-3; with A2780) was above 25 µM each time.

In test [1], `O=C(CCN1CCOCC1)Nc1ccc2c(O)c3ccc(NC(=O)CCN4CCOCC4)cc3nc2c1` showed an EC50 of 4.9 µM. The IC50 (in test [2]; with SK-OV-3; with A2780) was above 25 µM throughout.

Compound `CCN(CC)CCC(=O)Nc1ccc2c(O)c3ccc(NC(=O)CCN(CC)CC)cc3nc2c1` returned an EC50 in test [1] of 5.7 µM. For the same compound, the IC50 (in test [2]; with SK-OV-3; in the test with A2780) was above 25 µM throughout.

As for `O=C(CCN1CCCC1)Nc1ccc2c(O)c3ccc(NC(=O)CCN4CCCC4)cc3nc2c1`, in test [1], the EC50 is 8.1 µM. The IC50 (in test [2]; in the test on SK-OV-3; in the test on A2780) was above 25 µM throughout.

In the case of `CC1CCN(CCC(=O)Nc2ccc3c(O)c4cc(NC(=O)CCN5CCC(C)CC5)ccc4nc3c2)CC1`, the EC50 in test [1] turned out to be 0.2 µM. In addition, the IC50 in test [2] was 25 µM; in the test on SK-OV-3, 25 µM; in the test on A2780, above 25 µM.

`CCN(CC)CCC(=O)Nc1ccc2c(O)c3cc(NC(=O)CCN(CC)CC)ccc3nc2c1` showed an EC50 in test [1] of 0.7 µM. Besides, the IC50 was found to be 25 µM in test [2], 25 µM in the test on SK-OV-3 and 16 µM in the test with A2780.

`CC1CCCCN1CCC(=O)Nc1ccc2c(O)c3ccc(NC(=O)CCN4CCCCC4C)cc3nc2c1` (centres undefined) came in with an EC50 in test [1] of 2.3 µM. Also, the IC50 in test [2] is 11 µM; in the test on SK-OV-3 it was 10.5 µM; in the test on A2780, 13 µM.

In test [1], `O=C(CCN1CCCCC1)Nc1ccc2c(O)c3ccc(NC(=O)CCN4CCCCC4)cc3nc2c1` came in with an EC50 of 5.9 µM. The IC50 in test [2] came to 13 µM; in the test on SK-OV-3 it was 21 µM; with A2780, 19 µM.

As to `CCN(CC)c1ccc2cc3ccc(N(CC)CC)cc3nc2c1`, the EC50 in test [1] came to 5.8 µM. The IC50 in test [2] came out at 2.5 µM; with SK-OV-3, 2.3 µM; in the test with A2780, 0.6 µM.

`c1cc2cc3ccc(N4CCCC4)cc3nc2cc1N1CCCC1` displayed an EC50 in test [1] of 5.2 µM. For the same compound, the IC50 turned out to be 8.2 µM in test [2], 2.6 µM with SK-OV-3 and 27 µM with A2780.

Turning to `O=C(CCN1CCCCC1)Nc1ccc2nc3ccc(NC(=O)CCN4CCCCC4)cc3c(O)c2c1`, the response in test [1] was half-maximal at 1.9 µM (EC50). Moreover, the IC50 (in test [2]; with SK-OV-3; in the test with A2780) was above 25 µM throughout.

`O=C(CCN1CCCC1)Nc1ccc2nc3ccc(NC(=O)CCN4CCCC4)cc3c(O)c2c1` registered an EC50 in test [1] of 5.8 µM. Also, the IC50 (in test [2]; in the test with SK-OV-3; with A2780) was above 25 µM in each case.

In test [1], `CCN1CCN(CCC(=O)Nc2ccc3c(O)c4ccc(NC(=O)CCN5CCN(CC)CC5)cc4nc3c2)CC1` returned an EC50 of 1.9 µM. The IC50 was 11 µM in test [2], 10.5 µM in the test with SK-OV-3 and 11.8 µM in the test on A2780.

In test [1], `O=C(CCN1CCC(O)CC1)Nc1ccc2c(O)c3ccc(NC(=O)CCN4CCC(O)CC4)cc3nc2c1` came in with an EC50 of 1.7 µM. Besides, the IC50 (in test [2]; in the test with SK-OV-3; with A2780) was above 25 µM each time.

`CN(C)CCC(=O)Nc1ccc2c(O)c3ccc(NC(=O)CCN(C)C)cc3nc2c1` registered an EC50 in test [1] of 4.3 µM. Besides, the IC50 (in test [2]; in the test with SK-OV-3; with A2780) was above 25 µM throughout.

On to `O=C(CCN1CCC(O)CC1)Nc1ccc2nc3ccc(NC(=O)CCN4CCC(O)CC4)cc3c(O)c2c1`, for which the EC50 in test [1] came out at 2.3 µM. Further, the IC50 (in test [2]; in the test on SK-OV-3; in the test with A2780) was above 25 µM each time.

The values above are taken from ChEMBL document CHEMBL1137062, “Evaluation of by disubstituted acridone derivatives as telomerase inhibitors: the importance of G-quadruplex binding” (Bioorg Med Chem Lett, 2004).
